The record followed here is US20100063085A1, “METHOD OF TREATING LEARNING IMPAIRMENT IN DOWN'S SYNDROME SUBJECTS” (University Court of The University of Dundee, priority 2008, published 2010).

Like-named read-outs stand apart in the source and are kept apart here.

What all share (assay type): biochemical
Assay [1] deals with MAPKAP-K1b (Homo sapiens, UniProt P51812). In words: MAPKAP-K1b 33P kinase assay. The settings on record: read-out: MAPKAP-K1b activity as percentage of control without inhibitor. Here is the method:
(§1) All assays (25.5 μl) were carried out at room temperature (21° C.) and were linear with respect to time and enzyme concentrations under the conditions used. Assays were performed for 30 minutes except assays for LCK and PKB which were performed for 15 minutes using Multidrop Micro reagent dispensers (Thermo Electron Corporation, Waltham, Mass. 02454, USA) in a 96-well format. The concentration of […] [γ-^33P] ATP (800 cpm/pmol) in the assays was one of three concentrations (5, 20 or 50 μM) in order to be at or below Km for ATP for the enzyme. Assays were initiated with MgATP and stopped by addition of 5 μl of 0.5M orthophosphoric acid. Assays were then harvested onto P81 filterplates using a unifilter harvester (PerkinElmer, Boston, Mass. 02118, USA), with a wash buffer of 50 mM orthophosphoric acid. Filterplates were then air dried overnight. 10 μl of Microscint O was added per well prior to counting for radioactivity.
(§2) MKK1, JNK/SAPK1c, SAPK2a/p38, SAPK2b/p38β2, SAPK3/p38γ, SAPK4/p38δ, MAPK2/ERK2, MAPKAP-K1β, MAPKAP-K2, MSK1, PRAK, PKA, PKCα, PDK1, SGK, p70S6K, GSK3β, ROCK-II, PRK2, AMPK, CHK1, CHK2, CK2, PHK, LCK, were assayed according to Davies et al., (Davies, S. P., Reddy, H., Caivano, M. and Cohen, P. Biochem. J. 351, 95-105, 2000.
(§3) CSK and CDK2/cyclinA, were assayed according to Bain et al. (Bain J, McLauchlan H, Elliott M, Cohen P. Biochem J. 371, 199-204, 2003., except that ATP concentrations were either 5, 20 or 50 micromolar so that they were at or below the Km for ATP. The ATP concentrations used were as follows, 5 μM for assays of MKK1, SAPK3, SAPK4, GSK3β, PRK2 CK2 20 μm for assays of JNK, SAPK2β, MAPKAP-K2, MSK1, PRAK, PKA, […], PDK1, SGK, p70S6K, ROCK-II, CHK1, CHK2, CSK, CDK2, and 50 μM for assays of SAPK2a, MAPK2/ERK2, AMPK, LCK, PHK and MAPKAP-K1β.

Assay [2] addresses PRK2 (Homo sapiens, UniProt Q16513). In words: PRK2 33P kinase assay. To be noted: read-out: PRK2 activity as percentage of control without inhibitor. Here is the method:
as §1, §2, §3
(§4) The following kinases were assayed against the substrates indicated. Aurora B was assayed against the substrate peptide […] (300 μM), ERK8 and MST-2 were both assayed against MBP (0.33 mg/ml). IKKβ was assayed against the substrate peptide […] (300 μM), JNK3 was assayed against 3 μM ATF2[19-96]. MAPKAP-K3 and PKD1 were both assayed against […] (30 μM), MARK3 was assayed against CHKtide ([…]) substrate peptide (300 μM). MNK1 and MNK2 were both assayed against eIF4E protein (0.5 mg/ml). NEK7 was assayed against […] (300 μM), PIM2 was assayed against […] (300 μM), ΔPH PKBβ-S474D was assayed against Crosstide (30 μM), PLK1 was assayed against […] (300 μM). PRK2 was assayed against Long S6 peptide, […] (30 μM), RSK2 was assayed against […] (30 μM), SRC was assayed against cdc2 peptide, […], (300 μM) and SRPK1 was assayed against peptide […] (300 μM). All enzymes were diluted in 50 mM Tris/HCl pH 7.5, 0.1 mM EGTA, 1 mg/ml BSA, 0.1% β-mercaptoethanol buffer and assayed in an incubation containing 50 mM Tris/HCl pH7.5, 0.1 mM EGTA, 0.1% β-mercaptoethanol, CAMK-1 (5-20 mU) diluted in 50 mM Tris/HCl pH 7.5, 0.1 mM EGTA, 1 mg/ml BSA, 0.1% β-mercaptoethanol is assayed against substrate peptide […] in an incubation containing 50 mM Tris/HCl pH 7.5, 0.1 mM EGTA, 0.5 mM CaCl2, 0.3 μM calmodulin, 0.1% β-mereaptoethanol, 300 μM substrate peptide, 10 mM magnesium acetate and 0.05 mM [^33P-γ-ATP] (500-1000 cpm/pmole). EF2K (5-20 mU) diluted in 50 mM Hepes pH 6.6, 0.1% β-mercaptoethanol, 1 mg/ml BSA is assayed against a substrate peptide […] in an incubation containing 50 mM Hepes pH 6.6, 0.2 mM CaCl2, 0.3 μM Calmodulin, 0.05% b-mercaptoethanol, 300 μM substrate peptide, 10 mM magnesium acetate and 0.05 mM [^33P-γ-ATP] (500-1000 cpm/pmole).

The subject of assay [3] is PHK. The experiment in a line: PHK 33P kinase assay. How it is done:
as §1, §2, §3

Assay [4] deals with PLK1 (Homo sapiens, UniProt P53350). In words: PLK1 33P kinase assay. The settings on record: read-out: PLK1 activity as percentage of control without inhibitor. How it is done:
as §1, §4

Assay [5] addresses DYRK2 (Homo sapiens, UniProt Q92630). In words: DYRK2 33P kinase assay (analogous to DYRK1a). To be noted: ATP at 50 μM; half log dilutions starting at 100 μM. How it is done:
(§5) DYRK1A (5-20 mU of diluted in 50 mM Tris pH 7.5, 0.1 mM EGTA) was assayed against Woodtide ([…]) in a final volume of 25.5 μl containing 50 mM Tris pH 7.5, 0.1 mM EGTA, 350 uM substrate peptide, 10 mM magnesium acetate and 0.5 μl inhibitor and incubated at room temperature for 5 mins, followed by the addition of 0.05 mM [33P-gamma-ATP] (50-1000 cpm/pmole) and incubated for 30 mins at room temperature. Assays were stopped by addition of 5 μl of 0.5 M (3%) orthophosphoric acid then harvested onto P81 Unifilter plates with a wash buffer of 50 mM orthophosphoric acid. Filterplates were then air dried overnight. 10 μl of Microscint O was added per well prior to counting for radioactivity.
DYR2 and DYRK3 were assayed in an analogous manner to that described above for DYRK1a.

For assay [6], the target named is DYRK3 (Homo sapiens, UniProt O43781). In words: DYRK3 33P kinase assay (analogous to DYRK1a). The settings on record: ATP at 50 μM; half log dilutions starting at 100 μM. Here is the method: as §5
Chain of DYRK3 (O43781 whole entry, species assumed): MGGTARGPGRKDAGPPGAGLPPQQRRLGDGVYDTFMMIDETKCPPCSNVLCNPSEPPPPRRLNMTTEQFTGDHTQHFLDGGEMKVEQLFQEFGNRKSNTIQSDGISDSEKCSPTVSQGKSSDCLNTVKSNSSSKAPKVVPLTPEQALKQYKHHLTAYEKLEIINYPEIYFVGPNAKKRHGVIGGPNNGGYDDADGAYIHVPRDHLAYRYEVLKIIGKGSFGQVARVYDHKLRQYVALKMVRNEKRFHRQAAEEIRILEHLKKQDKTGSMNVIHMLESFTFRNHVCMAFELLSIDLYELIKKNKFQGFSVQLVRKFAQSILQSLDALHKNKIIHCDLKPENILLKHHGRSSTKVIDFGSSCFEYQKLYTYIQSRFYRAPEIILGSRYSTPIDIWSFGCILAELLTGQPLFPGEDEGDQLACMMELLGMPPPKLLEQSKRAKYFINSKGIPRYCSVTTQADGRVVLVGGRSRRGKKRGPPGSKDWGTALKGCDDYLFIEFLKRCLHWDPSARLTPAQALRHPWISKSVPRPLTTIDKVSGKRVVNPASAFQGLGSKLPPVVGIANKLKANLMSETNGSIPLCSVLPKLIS

Chain of PRK2 (Q16513 whole entry, species assumed): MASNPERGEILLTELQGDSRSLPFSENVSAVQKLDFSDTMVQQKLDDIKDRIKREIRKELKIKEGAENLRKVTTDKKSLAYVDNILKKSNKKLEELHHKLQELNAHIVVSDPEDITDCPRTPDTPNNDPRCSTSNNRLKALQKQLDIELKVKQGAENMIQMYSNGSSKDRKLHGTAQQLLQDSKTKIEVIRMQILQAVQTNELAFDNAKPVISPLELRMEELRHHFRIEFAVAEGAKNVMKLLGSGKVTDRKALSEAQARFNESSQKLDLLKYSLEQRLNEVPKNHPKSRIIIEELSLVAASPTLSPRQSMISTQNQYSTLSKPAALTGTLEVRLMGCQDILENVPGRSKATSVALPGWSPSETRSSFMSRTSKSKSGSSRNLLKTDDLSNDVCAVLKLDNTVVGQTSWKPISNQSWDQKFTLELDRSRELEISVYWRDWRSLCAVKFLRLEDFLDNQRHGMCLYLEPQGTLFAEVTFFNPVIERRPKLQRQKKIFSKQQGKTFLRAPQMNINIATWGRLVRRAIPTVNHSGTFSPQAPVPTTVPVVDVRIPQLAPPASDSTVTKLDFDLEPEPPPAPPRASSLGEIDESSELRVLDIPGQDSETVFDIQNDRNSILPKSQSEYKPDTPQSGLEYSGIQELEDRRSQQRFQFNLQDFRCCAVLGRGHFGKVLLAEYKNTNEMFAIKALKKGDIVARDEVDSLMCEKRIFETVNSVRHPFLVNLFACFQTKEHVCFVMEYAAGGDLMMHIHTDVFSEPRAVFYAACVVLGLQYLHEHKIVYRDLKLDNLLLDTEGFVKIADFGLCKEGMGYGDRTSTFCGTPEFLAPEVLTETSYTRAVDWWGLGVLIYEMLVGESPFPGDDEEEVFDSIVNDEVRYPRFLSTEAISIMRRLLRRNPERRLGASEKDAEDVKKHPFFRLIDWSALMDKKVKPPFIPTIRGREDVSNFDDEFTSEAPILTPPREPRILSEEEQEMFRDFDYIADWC
Chain of MAPKAP-K1b (P51812 whole entry, species assumed): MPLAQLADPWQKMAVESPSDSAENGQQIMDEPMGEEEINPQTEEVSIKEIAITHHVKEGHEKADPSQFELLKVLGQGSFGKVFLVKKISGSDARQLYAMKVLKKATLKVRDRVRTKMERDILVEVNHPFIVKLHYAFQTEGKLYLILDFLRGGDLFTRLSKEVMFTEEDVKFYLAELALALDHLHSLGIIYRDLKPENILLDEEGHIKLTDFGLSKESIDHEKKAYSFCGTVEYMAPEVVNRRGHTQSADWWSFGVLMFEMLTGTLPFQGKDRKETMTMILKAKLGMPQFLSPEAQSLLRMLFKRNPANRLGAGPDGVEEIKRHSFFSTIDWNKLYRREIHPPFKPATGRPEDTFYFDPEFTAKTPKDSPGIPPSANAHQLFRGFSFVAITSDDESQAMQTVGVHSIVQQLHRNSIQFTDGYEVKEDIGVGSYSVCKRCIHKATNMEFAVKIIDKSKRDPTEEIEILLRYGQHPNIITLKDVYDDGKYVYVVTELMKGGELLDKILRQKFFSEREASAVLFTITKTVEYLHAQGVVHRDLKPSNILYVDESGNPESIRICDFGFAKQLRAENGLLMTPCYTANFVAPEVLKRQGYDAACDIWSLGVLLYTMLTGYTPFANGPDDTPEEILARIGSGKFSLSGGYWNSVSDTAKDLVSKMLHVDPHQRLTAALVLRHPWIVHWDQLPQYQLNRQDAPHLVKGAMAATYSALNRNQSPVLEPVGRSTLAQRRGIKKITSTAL
Chain of PLK1 (P53350 whole entry, species assumed): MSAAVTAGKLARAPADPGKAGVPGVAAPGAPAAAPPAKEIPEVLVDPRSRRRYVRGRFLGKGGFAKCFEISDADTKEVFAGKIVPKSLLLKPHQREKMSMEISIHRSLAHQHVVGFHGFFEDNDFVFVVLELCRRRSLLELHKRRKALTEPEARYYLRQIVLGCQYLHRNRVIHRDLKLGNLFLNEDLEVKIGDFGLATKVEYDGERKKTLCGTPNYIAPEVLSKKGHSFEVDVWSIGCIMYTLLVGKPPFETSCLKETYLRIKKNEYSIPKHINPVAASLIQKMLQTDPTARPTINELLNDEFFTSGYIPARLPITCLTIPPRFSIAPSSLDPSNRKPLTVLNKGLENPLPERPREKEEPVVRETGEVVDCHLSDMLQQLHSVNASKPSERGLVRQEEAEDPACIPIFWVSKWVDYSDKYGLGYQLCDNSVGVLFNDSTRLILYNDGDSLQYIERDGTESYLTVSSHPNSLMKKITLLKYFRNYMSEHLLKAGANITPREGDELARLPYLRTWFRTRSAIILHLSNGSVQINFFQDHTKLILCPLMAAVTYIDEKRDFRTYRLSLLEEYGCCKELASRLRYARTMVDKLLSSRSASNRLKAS
Chain of DYRK2 (Q92630 whole entry, species assumed): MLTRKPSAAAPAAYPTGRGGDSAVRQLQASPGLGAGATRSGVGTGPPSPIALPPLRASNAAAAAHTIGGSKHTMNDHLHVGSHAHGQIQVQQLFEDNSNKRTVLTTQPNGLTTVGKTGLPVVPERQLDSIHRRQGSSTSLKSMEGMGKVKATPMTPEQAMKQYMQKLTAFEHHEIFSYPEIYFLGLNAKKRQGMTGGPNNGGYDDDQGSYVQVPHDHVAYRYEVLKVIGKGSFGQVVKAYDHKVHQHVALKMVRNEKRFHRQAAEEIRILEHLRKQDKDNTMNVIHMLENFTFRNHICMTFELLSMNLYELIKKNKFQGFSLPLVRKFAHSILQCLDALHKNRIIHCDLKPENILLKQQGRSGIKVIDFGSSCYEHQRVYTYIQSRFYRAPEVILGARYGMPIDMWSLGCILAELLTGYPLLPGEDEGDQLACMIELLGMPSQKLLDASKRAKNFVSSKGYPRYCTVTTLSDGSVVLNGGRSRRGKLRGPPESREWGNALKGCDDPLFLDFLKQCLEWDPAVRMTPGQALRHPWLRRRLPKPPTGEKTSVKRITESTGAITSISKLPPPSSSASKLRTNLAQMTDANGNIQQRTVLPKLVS

For the compound `COc1ccc2c3c([nH]c2c1)C(C)=NCC3` [Harmaline], the remaining activity at 1 µM in assay [1] (inhibitor 1 μM) was found to be 87%; in assay [2] (inhibitor 1 μM), 97%; in assay [4] (inhibitor 1 μM), 92%. Moreover, the remaining activity at 10 µM in assay [1] (inhibitor 10 μM) was 80%; in assay [2] (inhibitor 10 μM), 83%; in assay [4] (inhibitor 10 μM), 100%. Moreover, the “PHK activity as percentage of control without inhibitor” value is listed as 73% in assay [3] (inhibitor 1 μM) and 88% in assay [3] (inhibitor 10 μM).
For `CC1=NCCc2c1[nH]c1cc(O)ccc21` [Harmalol], the results for the remaining activity at 1 µM in assay [1] (inhibitor 1 μM), in assay [2] (inhibitor 1 μM) and in assay [4] (inhibitor 1 μM) were 87%, 86% and 88%, respectively. Also, the remaining activity at 10 µM in assay [1] (inhibitor 10 μM) was 67%; in assay [2] (inhibitor 10 μM) it was 54%; in assay [4] (inhibitor 10 μM), 81%. In addition, the “PHK activity as percentage of control without inhibitor” value in assay [3] (inhibitor 1 μM) came out at 101%; in assay [3] (inhibitor 10 μM), 63%.
Usually IC50 stands for the concentration that inhibits the measured activity by half. Read a high IC50 as lower potency. For `COc1ccc2c(c1)[nH]c1c(C)nccc12` [Harmine], the remaining activity at 1 µM in assay [1] is 89%; in assay [2], 82%; in assay [4] it was 92%. The remaining activity at 10 µM was 95% in assay [1], 45% in assay [2] and 87% in assay [4]. The “PHK activity as percentage of control without inhibitor” value in assay [3] (inhibitor 1 μM) is 103%; in assay [3] (inhibitor 10 μM), 82%. The 50% inhibitory concentration (IC50) in assay [5] came out at 900 nM; in assay [6] it was 800 nM.
